Here are results for four compounds from patent US20220323406A1, “METHODS AND COMPOSITIONS FOR DIFFERENTIATING STEM CELLS” (Massachusetts Institute of Technology, priority 2019, published 2022).

Assay [1] concerns ENR+CD organoids (ISC to Paneth cell differentiation). As to the kind of experiment: Primary screen: CCh-stimulated lysozyme secretion LYZ.S, 2.5-D 384-well ENR+CD organoid differentiation. The following applies: primary screen. Format: cell-based, mouse. From the text:
(§1) High-throughput screening.

The subject of the next assay is ENR+CD organoids. The assay can be described thus: Primary screen: ATP (CellTiter-Glo 3D, CTG) cell number/viability, 2.5-D 384-well ENR+CD organoids. (In general: In ATP-based viability assays light output follows the ATP content of the culture.)
Assay [2] has as its system ENR+CD organoids (ISC to Paneth cell differentiation). As to the kind of experiment: Primary screen: basal (non-stimulated) lysozyme secretion LYZ.NS, 2.5-D 384-well ENR+CD organoid differentiation. Format: cell-based, mouse.
Excerpt: as §1

Setting [3] is: primary screen, standard z score, dose 0.08 uM.
Where [4] appears, read: primary screen, standard z score, dose 0.40 uM.
Where [5] appears, read: primary screen, standard z score, dose 2.00 uM.
[6] abbreviates: primary screen, standard z score, dose 10.00 uM.
Where [7] appears, read: primary screen, dose 0.08 uM, standard z score.
Where [8] appears, read: primary screen, dose 0.40 uM, standard z score.
Where [9] appears, read: primary screen, dose 2.00 uM, standard z score.
The mark [10] stands for this setting: primary screen, dose 10.00 uM, standard z score.
The mark [11] stands for this setting: primary screen; dose 0.08 uM; FC vs plate median.
Setting [12] is: primary screen; dose 0.40 uM; FC vs plate median.
Where [13] appears, read: primary screen; dose 2.00 uM; FC vs plate median.
Setting [14] is: primary screen; dose 10.00 uM; FC vs plate median.
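Wherever Dose.FC.CTG (log2 fold change) is given: compounds given at plating and again on day 3 over a 6-day differentiation from ENR+CV stem-cell-enriched precursors, ATP measured on day 6, plate median as control.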
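Wherever Dose.FC.CTG is given: compounds given at plating and again on day 3 over a 6-day differentiation from ENR+CV stem-cell-enriched precursors, ATP measured on day 6, plate median as control.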
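Wherever Z.CTG (standard z score) is given: compounds given at plating and again on day 3 over a 6-day differentiation from ENR+CV stem-cell-enriched precursors, ATP measured on day 6, plate median as control.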
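Wherever Z.CTG is given: compounds given at plating and again on day 3 over a 6-day differentiation from ENR+CV stem-cell-enriched precursors, ATP measured on day 6, plate median as control.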

Regarding `O=C(c1cn(Cc2cncn2Cc2ccc(Br)cc2)cc1-c1cccc2ccccc12)N1CCOCC1` [LB42708], the “Dose.FC.LYZ.S (log2 fold change)” value in assay [1] (dose 0.08 uM) is recorded as −0.089; in assay [1] (dose 0.40 uM) it was −0.144; in assay [1] (dose 2.00 uM) it was −0.238; in assay [1] (dose 10.00 uM), −0.233. Further, the “Dose.FC.CTG (log2 fold change)” value with ENR+CD organoids (primary screen, dose 0.08 uM) is reported as −0.072; in the assay with ENR+CD organoids (primary screen, dose 0.40 uM), −0.342; in the assay with ENR+CD organoids (primary screen, dose 2.00 uM), −0.116; in the assay on ENR+CD organoids (primary screen, dose 10.00 uM) it was −0.706. Besides, the “Z.CTG (standard z score)” value in the assay on ENR+CD organoids (primary screen, dose 0.08 uM) is recorded as −0.172; with ENR+CD organoids (primary screen, dose 0.40 uM), −0.817; with ENR+CD organoids (primary screen, dose 2.00 uM), −0.277; in the assay on ENR+CD organoids (primary screen, dose 10.00 uM), −1.685. Besides, the “Dose.FC.LYZ.NS (log2 fold change)” value is on record as −0.116 in assay [2] (primary screen, dose 0.08 uM); −0.140 in assay [2] (primary screen, dose 0.40 uM); −0.176 in assay [2] (primary screen, dose 2.00 uM); −0.182 in assay [2] (primary screen, dose 10.00 uM). For the same compound, the “Z.LYZ.NS (standard z score)” value was −1.010 in assay [2] (primary screen, dose 0.08 uM); −1.221 in assay [2] (primary screen, dose 0.40 uM); −1.531 in assay [2] (primary screen, dose 2.00 uM); −1.587 in assay [2] (primary screen, dose 10.00 uM).
On to `Cc1ccc(NC(=O)C2(c3ccc4c(c3)OC(F)(F)O4)CC2)nc1-c1cccc(C(=O)O)c1` [VX-809 (Lumacaftor)], for which the Dose.FC.LYZ.S in assay [1] (dose 0.08 uM) is 0.218 log2 fold change; in assay [1] (dose 0.40 uM), −0.027 log2 fold change; in assay [1] (dose 2.00 uM) it was −0.073 log2 fold change; in assay [1] (dose 10.00 uM), −0.117 log2 fold change. The Dose.FC.CTG was 0.177 log2 fold change in the assay on ENR+CD organoids (primary screen, dose 0.08 uM); −0.062 log2 fold change in the assay with ENR+CD organoids (primary screen, dose 0.40 uM); −0.145 log2 fold change in the assay with ENR+CD organoids (primary screen, dose 2.00 uM); 0.032 log2 fold change with ENR+CD organoids (primary screen, dose 10.00 uM). The “Z.CTG (standard z score)” value with ENR+CD organoids (primary screen, dose 0.08 uM) is listed as 0.423; in the assay on ENR+CD organoids (primary screen, dose 0.40 uM) it was −0.149; in the assay with ENR+CD organoids (primary screen, dose 2.00 uM) it was −0.346; with ENR+CD organoids (primary screen, dose 10.00 uM) it was 0.076. For the same compound, the Dose.FC.LYZ.NS is 0.073 log2 fold change in assay [2] (primary screen, dose 0.08 uM); −0.041 log2 fold change in assay [2] (primary screen, dose 0.40 uM); −0.032 log2 fold change in assay [2] (primary screen, dose 2.00 uM); −0.082 log2 fold change in assay [2] (primary screen, dose 10.00 uM). The “Z.LYZ.NS (standard z score)” value in assay [2] (primary screen, dose 0.08 uM) was 0.634; in assay [2] (primary screen, dose 0.40 uM), −0.353; in assay [2] (primary screen, dose 2.00 uM), −0.279; in assay [2] (primary screen, dose 10.00 uM), −0.713.
For the compound `CCCCCCCCc1ccc(CCC(N)(CO)CO)cc1.Cl` [Fingolimod (FTY720) HCl], the Dose.FC.LYZ.S is −0.046 log2 fold change in assay [1] (dose 0.08 uM), 0.077 log2 fold change in assay [1] (dose 0.40 uM), −0.060 log2 fold change in assay [1] (dose 2.00 uM) and −0.362 log2 fold change in assay [1] (dose 10.00 uM). Further, the Dose.FC.CTG in the assay with ENR+CD organoids (primary screen, dose 0.08 uM) is on record as −0.080 log2 fold change; in the assay on ENR+CD organoids (primary screen, dose 0.40 uM) it was 0.103 log2 fold change; in the assay on ENR+CD organoids (primary screen, dose 2.00 uM) it was −0.468 log2 fold change; with ENR+CD organoids (primary screen, dose 10.00 uM), −1.304 log2 fold change. The Z.CTG in the assay on ENR+CD organoids (setting [3]) was −0.191; in the assay on ENR+CD organoids (setting [4]), 0.245; in the assay with ENR+CD organoids (setting [5]) it was −1.119; with ENR+CD organoids (setting [6]), −3.116. The Dose.FC.LYZ.NS was −0.054 log2 fold change in assay [2] (primary screen, dose 0.08 uM); 0.071 log2 fold change in assay [2] (primary screen, dose 0.40 uM); 0.021 log2 fold change in assay [2] (primary screen, dose 2.00 uM); −0.225 log2 fold change in assay [2] (primary screen, dose 10.00 uM). Moreover, the Z.LYZ.NS in assay [2] (setting [3]) was −0.471; in assay [2] (setting [4]), 0.616; in assay [2] (setting [5]) it was 0.186; in assay [2] (setting [6]), −1.961.
`CC(=O)c1c(C)c2cnc(Nc3ccc(N4CCNCC4)cn3)nc2n(C2CCCC2)c1=O.Cl` [Palbociclib (PD-0332991) HCl]: the Dose.FC.LYZ.S is recorded as 0.004 log2 fold change in assay [1] (dose 0.08 uM, FC vs plate median); −0.042 log2 fold change in assay [1] (dose 0.40 uM, FC vs plate median); −0.122 log2 fold change in assay [1] (dose 2.00 uM, FC vs plate median); −0.203 log2 fold change in assay [1] (dose 10.00 uM, FC vs plate median). Also, the Z.CTG is on record as 0.404 in the assay with ENR+CD organoids (setting [7]), −0.836 with ENR+CD organoids (setting [8]), −0.199 in the assay on ENR+CD organoids (setting [9]) and −1.617 in the assay with ENR+CD organoids (setting [10]). For the same compound, the Dose.FC.CTG in the assay with ENR+CD organoids (setting [11]) is 0.169 log2 fold change; in the assay with ENR+CD organoids (setting [12]), −0.350 log2 fold change; in the assay on ENR+CD organoids (setting [13]), −0.083 log2 fold change; in the assay on ENR+CD organoids (setting [14]) it was −0.677 log2 fold change. Further, the Z.LYZ.NS in assay [2] (setting [7]) is recorded as −0.055; in assay [2] (setting [8]) it was −0.248; in assay [2] (setting [9]) it was −0.440; in assay [2] (setting [10]), −1.150. Moreover, the Dose.FC.LYZ.NS was −0.006 log2 fold change in assay [2] (setting [11]), −0.029 log2 fold change in assay [2] (setting [12]), −0.051 log2 fold change in assay [2] (setting [13]) and −0.132 log2 fold change in assay [2] (setting [14]).
